Measured values reported in US20200368310A1, “TREATMENT WITH NMDA RECEPTOR MODULATORS” (Naurex, Inc, priority 2017, published 2020).
Residues, ends and D or L forms follow the SMILES beside them.

Tested on: Male rats
Assay: Sleep-wake cycle analysis by telemetric EEG recording in rats
Type: in vivo, rat
Settings: for percentage of active waking: FIG. 4B
Experimental: Male rats were anesthetized and surgically implanted with 2 surface electrodes in the frontoparietal cortex and 2 depth electrodes in the CA1 region of the hippocampus (AP +5.0 mm, L ±2.5 mm, V +7.0 mm). After ≥10 days recovery, telemetric transmitters were connected to electrodes for electroencephalographic (EEG) recordings. On the day of experiment, rats were injected at the beginning of the light phase with rapastinel (3, 10, or 30 mg/kg, IV), ketamine (30 mg/kg, IP), or the positive control zolpidem (12 mg/kg, PO) using a treatment schedule based on a cross-over design (n=9-10/dose/group) in which rats received zolpidem or rapastinel at session 1 and then rapastinel and/or ketamine at sessions 2-4. Physiological saline was used as the vehicle control
Sleep-wake cycles were measured continuously following rapastinel treatment for the next 23 hours and were analyzed based on a spectral power analysis. Latencies to first occurrence of SWS and REM sleep, as well as percent time spent in SWS, REM sleep, and wakefulness, were calculated for the total recording sessions (23 hours), the half cycles (0-12 and 12-23 hours), and 5 time segments (0-4, 4-8, 8-12, 12-18, and 18-23 hours). Depth of SWS (defined as the ratio between alpha and delta spectral power) was also calculated. Differences between vehicle and test drugs were calculated for all variables, for each animal, and for the means of the animals per treatment group, and analyzed using a paired t-test

With `C[C@@H](O)[C@H](N)C(=O)N1CCC[C@H]1C(=O)N1CCC[C@H]1C(=O)N[C@H](C(N)=O)[C@@H](C)O` [Rapastinel, rapastinel] (H-TPPT-NH2) the “percentage of active waking” value (rapastinel 30 mg/kg IV, 8-12 hours post-dose, P<0.01) was “small but significant decrease”, the “percentage of active waking” value (rapastinel 30 mg/kg IV, 18-23 hours post-dose, P<0.05) was “small but significant decrease” and the “percentage of active waking” value (rapastinel, all doses and periods except 8-12 and 18-23 hours at 30 mg/kg) was “no effect”.
`CNC1(c2ccccc2Cl)CCCCC1=O` (stereo not drawn) [Ketamine, ketamine] was tested, and the “alpha/delta ratio (depth of SWS)” value (ketamine 30 mg/kg IP, 0-4 hours post-dose, P<0.001) was “concomitant decrease”, the “duration of SWS” value (ketamine 30 mg/kg IP, 0-4 hours post-dose, P<0.001, FIG. 2A) was “decreased” and the “duration of REM sleep” value (ketamine 30 mg/kg IP, 0-4 hours post-dose, P<0.001, FIG. 3) was “decreased”. For the same compound, the “waking (duration)” value (ketamine 30 mg/kg IP, 12-23 hours post-dose, P<0.01, FIG. 4A) was “small but significant decrease”, the “REM sleep (duration)” value (ketamine 30 mg/kg IP, 12-23 hours post-dose, P<0.05, FIG. 3) was “compensatory increase” and the “percentage of active waking” value (ketamine 30 mg/kg IP, 12-23 hours post-dose, P<0.05) was “significantly decreased”. The duration of waking (ketamine 30 mg/kg IP, first 4 hours post-dose, P<0.001, FIG. 4A) was “significantly increased”.
For `Cc1ccc(-c2nc3ccc(C)cn3c2CC(=O)N(C)C)cc1` [Zolpidem, zolpidem], the “percentage of active waking” value (zolpidem 12 mg/kg PO, 0-12 hours post-dose, P<0.05) was “significantly decreased” and the “duration of REM sleep” value (zolpidem 12 mg/kg PO, 4-8 hours post-dose, P<0.05, FIG. 3) was “significantly decreased”.
